One may read the IC50 as the midpoint of a concentration-inhibition curve.

Holding throughout (format): biochemical
Test [1] deals with T1, UCHL3 (Homo sapiens, UniProt P15374).
T1 sequence (P15374 1-230): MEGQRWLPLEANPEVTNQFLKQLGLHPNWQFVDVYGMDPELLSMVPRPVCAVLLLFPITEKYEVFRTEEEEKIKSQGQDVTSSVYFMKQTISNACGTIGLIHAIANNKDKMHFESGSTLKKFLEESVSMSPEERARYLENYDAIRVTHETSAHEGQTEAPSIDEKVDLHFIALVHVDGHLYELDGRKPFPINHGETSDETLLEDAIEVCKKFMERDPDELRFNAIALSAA
Description: Ub-Rho cleavage assay, purified enzyme, […] min preincubation.

The target in test [2] is T2, Ubiquitin C-terminal Hydrolase L1 (UCHL1) (Homo sapiens, UniProt P09936).
T2 sequence (P09936 1-220): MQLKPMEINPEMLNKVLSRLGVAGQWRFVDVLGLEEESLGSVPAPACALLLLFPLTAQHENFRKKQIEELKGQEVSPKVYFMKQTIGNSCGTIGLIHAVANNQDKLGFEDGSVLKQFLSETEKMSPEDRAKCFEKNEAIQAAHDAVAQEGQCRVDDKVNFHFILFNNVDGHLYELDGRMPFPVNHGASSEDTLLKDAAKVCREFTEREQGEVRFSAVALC
The experiment in a line: inhibition IC50 of UCHL1.

In test [3] the target is T1, UCHL3. The experiment in a line: Ub-Rho cleavage assay, purified enzyme.

`N#CN1CCC[C@H]1C(=O)N1CCc2c(-c3cn[nH]c3C(F)(F)F)cccc21` [compound 1, (S)-2-(4-(5-(trifluoromethyl)-1H-pyrazol-4-yl)indoline-1-carbonyl)pyrrolidine-1-carbonitrile] had an IC50 against UCHL3 [1] of 6.4 µM.
On to `C#CCCn1cc(-c2cccc3c2CCN3C(=O)[C@@H]2CCCN2C#N)c(C(F)(F)F)n1` [compound 2, (S)-2-(4-(1-(but-3-yn-1-yl)-3-(trifluoromethyl)-1H-pyrazol-4-yl)indoline-1-carbonyl)pyrrolidine-1-carbonitrile], for which the IC50 came to 6.4 µM in test [2] and 5.5 µM on UCHL3 [3].
